This is an account of results in PMC6667648 (Frontiers in Microbiology, 2019).

The test system of assay [1] is preformed C. albicans biofilm. Particulars: ref Woodburn et al., under review; cited from earlier work.
A further assay relates to A. baumannii 6043. Description: microbe, parasite or virus in culture. In kind it is cell-based, Acinetobacter baumannii. The settings on record: Acinetobacter baumannii; A. baumannii 6043; 24-h incubation; mean of 3 replicates from 2 independent experiments; read-out: Minimum Inhibitory Concentration (MIC). On the procedure: (§1) Strains were obtained from American Type Culture Collection (ATCC, Manassas, VA) or the clinical isolate collection at Trideum Biosciences (Frederick, MD, USA). Bioluminescence strains of P. aeruginosa 19660, transfected with the Xen5 luciferase gene, and S. aureus ATCC® 49525™ (Wright), transfected with the Xen36 luciferase gene, were obtained from Perkin Elmer (Hopkinton, MA).
(§2) A single colony was aseptically picked from an agar overlay and released in 25–30 mL of pre-warmed trypticase soy broth in a culture flask. Each culture was incubated overnight in a 37°C incubator. […] Pathogen growth was measured by absorbance at 600 nm. Four replicas were included for each test agent concentration. […]

For the next assay, the system named is A. baumannii 6838. Description: microbe, parasite or virus in culture. The settings on record: Acinetobacter baumannii; A. baumannii 6838; 24-h incubation; mean of 3 replicates from 2 independent experiments; read-out: Minimum Inhibitory Concentration (MIC). The class given is cell-based, Acinetobacter baumannii. On the procedure: as §1, §2
A further assay has as its system A. baumannii ATCC 17978. Put plainly: microbe, parasite or virus in culture. The class given is cell-based, Acinetobacter baumannii. The settings on record: Acinetobacter baumannii, ATCC17978; A. baumannii ATCC 17978; 24-h incubation; mean of 3 replicates from 2 independent experiments; read-out: Minimum Inhibitory Concentration (MIC). The method, then: as §1, §2

The subject of another assay is K. pneumonia 6066. Put plainly: microbe, parasite or virus in culture. In kind it is cell-based, Klebsiella pneumoniae. The settings on record: Klebsiella pneumoniae; K. pneumonia 6066; 24-h incubation; mean of 3 replicates from 2 independent experiments; read-out: Minimum Inhibitory Concentration (MIC). On the procedure: as §1, §2
The test system of the next assay is K. pneumonia 6069. Put plainly: microbe, parasite or virus in culture. Particulars: Klebsiella pneumoniae; K. pneumonia 6069; 24-h incubation; mean of 3 replicates from 2 independent experiments; read-out: Minimum Inhibitory Concentration (MIC). In kind it is cell-based, Klebsiella pneumoniae. On the procedure:
as §1, §2

A further assay deals with K. pneumonia ATCC 10031. Description: microbe, parasite or virus in culture. In kind it is cell-based, Klebsiella pneumoniae. Particulars: Klebsiella pneumoniae, ATCC10031; K. pneumonia ATCC 10031; 24-h incubation; mean of 3 replicates from 2 independent experiments; read-out: Minimum Inhibitory Concentration (MIC). The method, then: as §1, §2
In the next assay the test system is P. aeruginosa 6186. Put plainly: microbe, parasite or virus in culture. The settings on record: Pseudomonas aeruginosa; P. aeruginosa 6186; 24-h incubation; mean of 3 replicates from 2 independent experiments; read-out: Minimum Inhibitory Concentration (MIC). In kind it is cell-based, Pseudomonas aeruginosa. On the procedure: as §1, §2
Another assay deals with P. aeruginosa ATCC 19660. Description: microbe, parasite or virus in culture. In kind it is cell-based, Pseudomonas aeruginosa. The settings on record: Pseudomonas aeruginosa, ATCC19660; P. aeruginosa ATCC 19660; 24-h incubation; mean of 3 replicates from 2 independent experiments; read-out: Minimum Inhibitory Concentration (MIC). On the procedure:
as §1, §2

In another assay the test system is P. aeruginosa ATCC 27853. Description: microbe, parasite or virus in culture. In kind it is cell-based, Pseudomonas aeruginosa. The settings on record: Pseudomonas aeruginosa, ATCC27853; P. aeruginosa ATCC 27853; 24-h incubation; mean of 3 replicates from 2 independent experiments; read-out: Minimum Inhibitory Concentration (MIC). On the procedure: as §1, §2
Another assay has as its system MRSA 6313. Put plainly: microbe, parasite or virus in culture. The settings on record: Staphylococcus aureus; MRSA 6313; 24-h incubation; mean of 3 replicates from 2 independent experiments; read-out: Minimum Inhibitory Concentration (MIC). The class given is cell-based, Staphylococcus aureus. On the procedure: as §1, §2
A further assay concerns MRSA 6381. Description: microbe, parasite or virus in culture. The class given is cell-based, Staphylococcus aureus. Particulars: Staphylococcus aureus; MRSA 6381; 24-h incubation; mean of 3 replicates from 2 independent experiments; read-out: Minimum Inhibitory Concentration (MIC). The method, then: as §1, §2
In another assay the test system is MRSA ATCC 33592. Put plainly: microbe, parasite or virus in culture. In kind it is cell-based, Staphylococcus aureus. The settings on record: Staphylococcus aureus; MRSA ATCC 33592; 24-h incubation; mean of 3 replicates from 2 independent experiments; read-out: Minimum Inhibitory Concentration (MIC). On the procedure: as §1, §2
The subject of another assay is S. aureus 6061. Put plainly: microbe, parasite or virus in culture. In kind it is cell-based, Staphylococcus aureus. Particulars: Staphylococcus aureus; S. aureus 6061; 24-h incubation; mean of 3 replicates from 2 independent experiments; read-out: Minimum Inhibitory Concentration (MIC). On the procedure:
as §1, §2

The next assay deals with S. aureus B-767. Description: microbe, parasite or virus in culture. The class given is cell-based, Staphylococcus aureus. Particulars: Staphylococcus aureus, B767; S. aureus B-767; 24-h incubation; mean of 3 replicates from 2 independent experiments; read-out: Minimum Inhibitory Concentration (MIC). The method, then:
as §1, §2

The next assay concerns S. epidermis ATCC 51625. Put plainly: microbe, parasite or virus in culture. In kind it is cell-based, S. epidermidis. The settings on record: Staphylococcus epidermidis, ATCC51625; S. epidermis ATCC 51625; 24-h incubation; mean of 3 replicates from 2 independent experiments; read-out: Minimum Inhibitory Concentration (MIC). The method, then: as §1, §2
In another assay the test system is E. cloacae 6053. Put plainly: microbe, parasite or virus in culture. The class given is cell-based. Particulars: Enterobacter cloacae; E. cloacae 6053; 24-h incubation; mean of 3 replicates from 2 independent experiments; read-out: Minimum Inhibitory Concentration (MIC). On the procedure:
as §1, §2

A further assay relates to E. cloacae 6054. Description: microbe, parasite or virus in culture. In kind it is cell-based. Particulars: Enterobacter cloacae; E. cloacae 6054; 24-h incubation; mean of 3 replicates from 2 independent experiments; read-out: Minimum Inhibitory Concentration (MIC). The method, then: as §1, §2
For assay [2], the system named is bioluminescent P. aeruginosa 19660. Put plainly: Bioluminescence time-kill assay. The class given is cell-based, Pseudomonas aeruginosa. Particulars: antibiotics after 30 min incubation, triplicates, two independent experiments. On the procedure: as §1
(§3) Non-invasive real-time evaluation of viability, mammalian, and bacterial cells, was performed using bioluminescent human keratinocytes (HaCaT, AddexBio, San Diego, CA) and murine L929 fibroblast cells (ATCC, Manassas, VA). The bioluminescent variants were constructed by transfection with a luciferase gene (RediFect Red-Fluc-Puromycin, Catalog #CL596002) (Hamblin et al., [2003]). […] Each concentration was performed in triplicate. Bioluminescence imaging was performed at pre-specified times (0, 15, and 30 min and 1, 3, 5, 8, and 24 h) and compared to concurrently run vehicle-controls. The 96-well plate was positioned on the stage (12.5-cm field of view) within the in vivo Imaging System (IVIS) imaging system (Caliper Life Sciences, Inc., Hopkinton, MA, USA), with an open emission filter, binning of 4, and f-stop 1, and a 1-min exposure time. The resultant photons emitted from the live cells were quantified using Living Image® software (version 4.3, Caliper Life Sciences, Inc.). […]

The test system of assay [3] is bioluminescent S. aureus 49525. Put plainly: Bioluminescence time-kill assay. The class given is cell-based, Staphylococcus aureus. Particulars: antibiotics after 30 min incubation, triplicates, two independent experiments. On the procedure: as §1, §3
Assay [4] relates to 6 hr MRSA ATCC 1556 biofilm. In kind it is cell-based, Staphylococcus aureus. Particulars: ATCC 1556, 6 h.
In assay [5] the test system is mature (120 h) MRSA ATCC 1556 biofilm. In kind it is cell-based, Staphylococcus aureus. The settings on record: ATCC 1556, 120 h.
The next assay concerns C. parapsilosis Y-1761. Put plainly: microbe, parasite or virus in culture. The class given is cell-based. Particulars: Lodderomyces parapsilosis, Y1761, 24-h incubation, mean of 3 replicates from 2 independent experiments, read-out: Minimum Inhibitory Concentration (MIC). The method, then: as §1, §2
The subject of a further assay is C. parapsilosis Y-1763. Put plainly: microbe, parasite or virus in culture. Particulars: Lodderomyces parapsilosis, Y1763, 24-h incubation, mean of 3 replicates from 2 independent experiments, read-out: Minimum Inhibitory Concentration (MIC). In kind it is cell-based. The method, then:
as §1, §2

In brackets after ≈: the same amount, converted by molar mass. Several values for one entry are separate records, joined by “and”; a condition that tells them apart may be missing. Identical values can stand only once.

For `OC(Cn1cncn1)(Cn1cncn1)c1ccc(F)cc1F` [fluconazole], the “Killing fungi in preformed C. albicans biofilm and preventing biofilm formation” value in assay [1] is recorded as “markedly ineffective”.

Consider `NC[C@H]1O[C@H](O[C@H]2[C@H](O)[C@@H](O[C@H]3O[C@H](CO)[C@@H](O)[C@H](N)[C@H]3O)[C@H](N)C[C@@H]2N)[C@H](N)C[C@@H]1O` [Tobramycin, tobramycin], for which the MIC was determined as 68.5 µM (≈ 32 µg/mL) in the assay on A. baumannii 6043; 4.3 µM (≈ 2.01 µg/mL) in the assay with A. baumannii 6838; 4.3 µM (≈ 2.01 µg/mL) with A. baumannii ATCC 17978; 8.6 µM (≈ 4.02 µg/mL) with K. pneumonia 6066; 4.3 µM (≈ 2.01 µg/mL) in the assay on K. pneumonia 6069; 4.3 µM (≈ 2.01 µg/mL) in the assay with K. pneumonia ATCC 10031. The MIC in the assay with P. aeruginosa 6186 is > 274 µM; in the assay with P. aeruginosa ATCC 19660, > 274 µM; in the assay on P. aeruginosa ATCC 27853, 4.3 µM (≈ 2.01 µg/mL); in the assay on MRSA 6313, > 274 µM; with MRSA 6381, 274 µM (≈ 128 µg/mL); in the assay with MRSA ATCC 33592 it was 137 µM (≈ 64.1 µg/mL). The MIC in the assay with S. aureus 6061 is 8.6 µM (≈ 4.02 µg/mL); with S. aureus B-767 it was > 274 µM; with S. epidermis ATCC 51625, 4.3 µM (≈ 2.01 µg/mL); in the assay on E. cloacae 6053, 68.5 µM (≈ 32 µg/mL); in the assay on E. cloacae 6054, 137 µM (≈ 64.1 µg/mL). In addition, the “Bactericidal activity in time-kill assay” value in assay [2] and in assay [3] was “no trace of antibacterial activity” each time.

As to `CCCCCCCCCC(=O)N[C@@H](Cc1c[nH]c2ccccc12)C(=O)N[C@H](CC(N)=O)C(=O)N[C@@H](CC(=O)O)C(=O)N[C@@H]1C(=O)NCC(=O)N[C@@H](CCCN)C(=O)N[C@@H](CC(=O)O)C(=O)N[C@H](C)C(=O)N[C@@H](CC(=O)O)C(=O)NCC(=O)N[C@H](CO)C(=O)N[C@@H]([C@H](C)CC(=O)O)C(=O)N[C@@H](CC(=O)c2ccccc2N)C(=O)O[C@@H]1C` [daptomycin], the “EC90, biofilm CFU” value in assay [4] was > 100 µg/mL. Besides, the “EC90 (concentration to reduce biofilm by 90%)” value in [5] is on record as ~ 100 μg/mL.

`C[C@@H]1[C@H](O)[C@@H](C)/C=C/C=C/C=C/C=C/C=C/C=C/C=C/[C@H](O[C@@H]2O[C@H](C)[C@@H](O)[C@H](N)[C@@H]2O)C[C@@H]2O[C@](O)(C[C@@H](O)C[C@@H](O)[C@H](O)CC[C@@H](O)C[C@@H](O)CC(=O)O[C@H]1C)C[C@H](O)[C@H]2C(=O)O` [Amphotericin b, amphotericin B]: the MIC in the assay on C. parapsilosis Y-1761 was 1 µM and 1.08 µg/mL; in the assay on C. parapsilosis Y-1763, 1 µM and 1.08 µg/mL.
